ChEMBL document CHEMBL4308824, “Design of Small Molecule Autophagy Modulators: A Promising Druggable Strategy” (J Med Chem, 2018)
Where a name gives a salt, the structure may show the parent alone.

Experiments:
MDA-MB-231 = assay: Cytotoxicity against human MDA-MB-231 cells assessed as reduction in cell viability at 750 nM after 24 hrs by MTT assay relative to control; format: functional
mTORC1 = mTORC1 (Homo sapiens, UniProt P42345); format: protein-complex assay
mTORC2 = mTORC2 (Homo sapiens, UniProt P42345); format: protein-complex assay
[1] = biological target: T1, Serine/threonine-protein kinase ULK2 (Homo sapiens, UniProt Q8IYT8); assay: Inhibition of ULK2 (unknown origin)
T1 sequence (Q8IYT8 whole entry): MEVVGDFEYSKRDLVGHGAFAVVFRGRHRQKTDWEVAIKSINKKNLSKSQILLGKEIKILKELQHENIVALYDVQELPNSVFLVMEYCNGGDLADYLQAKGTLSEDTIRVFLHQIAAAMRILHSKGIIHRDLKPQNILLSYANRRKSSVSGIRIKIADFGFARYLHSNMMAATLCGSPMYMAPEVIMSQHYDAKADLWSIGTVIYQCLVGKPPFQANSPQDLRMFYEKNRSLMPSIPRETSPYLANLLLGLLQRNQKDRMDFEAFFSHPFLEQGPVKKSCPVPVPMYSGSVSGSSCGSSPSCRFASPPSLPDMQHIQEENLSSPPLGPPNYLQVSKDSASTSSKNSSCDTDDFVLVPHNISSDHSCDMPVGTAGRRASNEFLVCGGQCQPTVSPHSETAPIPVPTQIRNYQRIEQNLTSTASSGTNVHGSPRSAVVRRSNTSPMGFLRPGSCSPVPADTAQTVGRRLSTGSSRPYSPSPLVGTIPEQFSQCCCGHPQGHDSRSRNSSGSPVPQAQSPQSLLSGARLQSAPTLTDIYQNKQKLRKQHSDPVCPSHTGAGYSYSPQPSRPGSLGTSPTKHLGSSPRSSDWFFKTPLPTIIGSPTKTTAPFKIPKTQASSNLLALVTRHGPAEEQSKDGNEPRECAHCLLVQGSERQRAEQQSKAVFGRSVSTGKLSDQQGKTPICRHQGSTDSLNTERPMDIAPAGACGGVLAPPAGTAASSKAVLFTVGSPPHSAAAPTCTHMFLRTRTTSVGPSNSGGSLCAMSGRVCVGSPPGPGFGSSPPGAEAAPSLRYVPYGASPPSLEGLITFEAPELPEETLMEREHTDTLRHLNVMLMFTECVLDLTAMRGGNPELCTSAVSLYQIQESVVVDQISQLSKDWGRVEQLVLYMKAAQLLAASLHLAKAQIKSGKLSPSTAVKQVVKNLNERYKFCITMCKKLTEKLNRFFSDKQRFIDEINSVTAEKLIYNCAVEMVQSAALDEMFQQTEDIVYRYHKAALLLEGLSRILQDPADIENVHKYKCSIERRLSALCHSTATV

[2] = biological target: T2, Serine/threonine-protein kinase ULK1 (Homo sapiens, UniProt O75385)
T2 sequence (O75385 whole entry): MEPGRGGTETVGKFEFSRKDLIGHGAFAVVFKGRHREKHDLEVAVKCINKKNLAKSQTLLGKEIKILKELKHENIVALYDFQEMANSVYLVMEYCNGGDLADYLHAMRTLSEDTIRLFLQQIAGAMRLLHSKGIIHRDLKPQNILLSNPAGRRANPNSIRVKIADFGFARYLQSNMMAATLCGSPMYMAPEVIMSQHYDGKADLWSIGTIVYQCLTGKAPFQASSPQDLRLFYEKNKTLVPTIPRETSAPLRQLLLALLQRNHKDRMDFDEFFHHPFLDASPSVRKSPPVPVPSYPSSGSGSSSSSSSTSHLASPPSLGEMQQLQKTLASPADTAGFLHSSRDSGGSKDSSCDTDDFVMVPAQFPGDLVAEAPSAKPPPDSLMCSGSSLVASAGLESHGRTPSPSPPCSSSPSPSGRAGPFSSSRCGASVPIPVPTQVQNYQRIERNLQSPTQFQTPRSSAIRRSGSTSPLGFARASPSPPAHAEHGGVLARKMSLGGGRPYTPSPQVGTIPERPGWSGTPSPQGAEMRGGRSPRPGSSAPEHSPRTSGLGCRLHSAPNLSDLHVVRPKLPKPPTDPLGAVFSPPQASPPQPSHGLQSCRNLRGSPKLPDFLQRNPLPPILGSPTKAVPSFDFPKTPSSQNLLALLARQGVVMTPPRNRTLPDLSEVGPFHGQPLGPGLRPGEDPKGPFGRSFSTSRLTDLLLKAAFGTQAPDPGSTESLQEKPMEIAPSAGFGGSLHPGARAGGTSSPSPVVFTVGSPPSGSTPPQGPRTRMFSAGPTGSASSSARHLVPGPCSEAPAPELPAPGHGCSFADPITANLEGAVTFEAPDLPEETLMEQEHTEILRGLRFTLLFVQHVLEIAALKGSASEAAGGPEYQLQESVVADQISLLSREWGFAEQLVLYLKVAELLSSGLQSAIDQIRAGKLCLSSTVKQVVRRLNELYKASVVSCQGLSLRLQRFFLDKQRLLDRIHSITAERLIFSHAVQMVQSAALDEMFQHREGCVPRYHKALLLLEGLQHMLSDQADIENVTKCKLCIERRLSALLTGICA

[3] = biological target: T1, Serine/threonine-protein kinase ULK2
[4] = biological target: Phosphatidylinositol 4,5-bisphosphate 3-kinase catalytic subunit alpha isoform (Homo sapiens, UniProt P42336); assay: Inhibition of PI3K p110alpha (unknown origin)
Chain of Phosphatidylinositol 4,5-bisphosphate 3-kinase catalytic subunit alpha isoform (P42336 whole entry, canonical isoform): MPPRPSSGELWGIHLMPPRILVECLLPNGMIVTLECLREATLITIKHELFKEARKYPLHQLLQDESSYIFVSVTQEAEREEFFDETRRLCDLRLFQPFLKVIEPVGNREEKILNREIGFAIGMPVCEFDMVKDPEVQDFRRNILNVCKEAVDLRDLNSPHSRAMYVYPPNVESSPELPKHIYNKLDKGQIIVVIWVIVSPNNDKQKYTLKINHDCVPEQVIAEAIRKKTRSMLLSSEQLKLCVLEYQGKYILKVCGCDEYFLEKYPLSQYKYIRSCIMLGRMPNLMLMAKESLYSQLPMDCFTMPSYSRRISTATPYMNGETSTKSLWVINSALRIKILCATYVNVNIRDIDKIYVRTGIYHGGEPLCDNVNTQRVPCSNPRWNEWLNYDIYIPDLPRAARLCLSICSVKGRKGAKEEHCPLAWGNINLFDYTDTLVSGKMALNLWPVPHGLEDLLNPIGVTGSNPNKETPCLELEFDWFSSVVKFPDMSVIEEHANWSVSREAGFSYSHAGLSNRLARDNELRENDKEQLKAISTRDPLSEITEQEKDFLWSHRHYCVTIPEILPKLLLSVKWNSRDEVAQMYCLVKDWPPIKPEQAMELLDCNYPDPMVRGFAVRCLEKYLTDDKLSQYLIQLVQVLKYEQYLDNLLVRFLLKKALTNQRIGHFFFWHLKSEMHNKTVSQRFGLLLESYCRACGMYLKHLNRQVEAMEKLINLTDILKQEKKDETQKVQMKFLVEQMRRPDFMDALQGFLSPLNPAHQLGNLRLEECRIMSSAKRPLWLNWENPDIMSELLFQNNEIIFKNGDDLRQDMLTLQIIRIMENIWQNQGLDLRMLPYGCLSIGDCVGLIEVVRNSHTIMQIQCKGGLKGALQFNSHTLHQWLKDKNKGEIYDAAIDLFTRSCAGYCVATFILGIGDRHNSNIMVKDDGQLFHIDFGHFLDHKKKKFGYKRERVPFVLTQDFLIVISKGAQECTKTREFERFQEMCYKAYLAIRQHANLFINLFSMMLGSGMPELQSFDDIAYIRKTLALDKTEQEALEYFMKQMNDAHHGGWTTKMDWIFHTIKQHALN

[5] = biological target: Phosphatidylinositol 4,5-bisphosphate 3-kinase catalytic subunit beta isoform (Homo sapiens, UniProt P42338); assay: Inhibition of PI3K p110beta (unknown origin)
Chain of Phosphatidylinositol 4,5-bisphosphate 3-kinase catalytic subunit beta isoform (P42338 whole entry, canonical isoform): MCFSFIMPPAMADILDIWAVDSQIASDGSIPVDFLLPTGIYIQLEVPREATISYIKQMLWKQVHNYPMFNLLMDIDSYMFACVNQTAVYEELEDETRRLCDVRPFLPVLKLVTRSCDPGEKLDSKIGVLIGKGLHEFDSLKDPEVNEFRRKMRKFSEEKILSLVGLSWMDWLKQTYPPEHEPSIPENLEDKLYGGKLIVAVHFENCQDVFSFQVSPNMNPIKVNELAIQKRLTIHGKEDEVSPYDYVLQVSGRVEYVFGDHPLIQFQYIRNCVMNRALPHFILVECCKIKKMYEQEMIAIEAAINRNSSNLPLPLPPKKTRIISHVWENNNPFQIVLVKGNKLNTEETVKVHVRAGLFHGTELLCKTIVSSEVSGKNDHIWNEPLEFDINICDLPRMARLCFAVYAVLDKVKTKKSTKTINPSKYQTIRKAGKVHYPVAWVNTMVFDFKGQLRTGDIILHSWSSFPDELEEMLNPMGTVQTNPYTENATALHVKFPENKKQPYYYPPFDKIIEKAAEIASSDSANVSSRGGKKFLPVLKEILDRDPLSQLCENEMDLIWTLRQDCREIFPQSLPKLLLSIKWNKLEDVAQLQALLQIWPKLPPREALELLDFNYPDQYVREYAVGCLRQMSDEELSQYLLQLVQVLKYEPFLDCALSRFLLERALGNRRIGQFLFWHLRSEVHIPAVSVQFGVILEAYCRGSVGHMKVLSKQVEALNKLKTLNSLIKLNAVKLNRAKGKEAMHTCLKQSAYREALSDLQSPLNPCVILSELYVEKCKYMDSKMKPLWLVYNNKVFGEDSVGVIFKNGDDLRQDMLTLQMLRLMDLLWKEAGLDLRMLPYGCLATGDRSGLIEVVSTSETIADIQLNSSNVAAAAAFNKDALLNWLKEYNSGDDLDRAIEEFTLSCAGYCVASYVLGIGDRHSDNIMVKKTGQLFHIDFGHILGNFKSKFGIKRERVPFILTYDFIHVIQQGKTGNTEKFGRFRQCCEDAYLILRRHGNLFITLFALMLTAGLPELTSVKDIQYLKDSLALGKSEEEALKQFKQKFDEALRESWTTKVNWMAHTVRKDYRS

[6] = biological target: T3, Phosphatidylinositol 4,5-bisphosphate 3-kinase catalytic subunit delta isoform (Homo sapiens, UniProt O00329); assay: Inhibition of PI3K p110delta (unknown origin)
T3 sequence (O00329 whole entry): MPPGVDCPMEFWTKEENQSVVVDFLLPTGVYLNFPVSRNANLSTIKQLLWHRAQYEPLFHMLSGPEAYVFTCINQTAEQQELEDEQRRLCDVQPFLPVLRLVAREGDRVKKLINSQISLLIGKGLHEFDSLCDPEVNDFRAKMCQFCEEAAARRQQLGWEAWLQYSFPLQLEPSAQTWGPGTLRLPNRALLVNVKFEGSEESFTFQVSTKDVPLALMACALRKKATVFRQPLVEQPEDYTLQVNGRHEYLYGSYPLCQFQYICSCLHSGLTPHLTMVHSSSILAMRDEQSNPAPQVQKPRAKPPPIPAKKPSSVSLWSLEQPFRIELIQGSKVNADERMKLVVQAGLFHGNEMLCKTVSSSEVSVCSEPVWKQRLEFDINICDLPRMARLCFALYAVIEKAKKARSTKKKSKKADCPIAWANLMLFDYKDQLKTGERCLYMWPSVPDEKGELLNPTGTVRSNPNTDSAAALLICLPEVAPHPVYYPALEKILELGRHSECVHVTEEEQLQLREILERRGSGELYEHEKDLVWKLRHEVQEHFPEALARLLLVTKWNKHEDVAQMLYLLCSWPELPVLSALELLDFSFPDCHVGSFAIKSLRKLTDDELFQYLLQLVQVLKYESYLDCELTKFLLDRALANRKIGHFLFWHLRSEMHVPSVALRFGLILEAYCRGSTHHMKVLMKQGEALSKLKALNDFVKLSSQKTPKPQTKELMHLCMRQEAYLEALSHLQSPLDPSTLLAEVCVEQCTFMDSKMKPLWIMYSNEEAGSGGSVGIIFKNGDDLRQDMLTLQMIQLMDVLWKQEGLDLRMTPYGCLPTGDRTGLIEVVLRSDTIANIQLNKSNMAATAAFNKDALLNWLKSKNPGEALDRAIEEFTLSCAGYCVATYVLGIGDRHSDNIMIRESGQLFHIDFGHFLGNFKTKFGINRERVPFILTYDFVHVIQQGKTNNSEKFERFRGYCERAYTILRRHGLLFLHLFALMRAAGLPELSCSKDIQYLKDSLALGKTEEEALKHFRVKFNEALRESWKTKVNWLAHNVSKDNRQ

CNE-2 = assay: Antiproliferative activity against human CNE2 cells after 72 hrs by MTT assay; format: functional, cell-based; conditions: CNE-2, 72 h
[7] = biological target: Phosphatidylinositol 4,5-bisphosphate 3-kinase catalytic subunit gamma isoform (Homo sapiens, UniProt P48736)
Chain of Phosphatidylinositol 4,5-bisphosphate 3-kinase catalytic subunit gamma isoform (P48736 whole entry, canonical isoform): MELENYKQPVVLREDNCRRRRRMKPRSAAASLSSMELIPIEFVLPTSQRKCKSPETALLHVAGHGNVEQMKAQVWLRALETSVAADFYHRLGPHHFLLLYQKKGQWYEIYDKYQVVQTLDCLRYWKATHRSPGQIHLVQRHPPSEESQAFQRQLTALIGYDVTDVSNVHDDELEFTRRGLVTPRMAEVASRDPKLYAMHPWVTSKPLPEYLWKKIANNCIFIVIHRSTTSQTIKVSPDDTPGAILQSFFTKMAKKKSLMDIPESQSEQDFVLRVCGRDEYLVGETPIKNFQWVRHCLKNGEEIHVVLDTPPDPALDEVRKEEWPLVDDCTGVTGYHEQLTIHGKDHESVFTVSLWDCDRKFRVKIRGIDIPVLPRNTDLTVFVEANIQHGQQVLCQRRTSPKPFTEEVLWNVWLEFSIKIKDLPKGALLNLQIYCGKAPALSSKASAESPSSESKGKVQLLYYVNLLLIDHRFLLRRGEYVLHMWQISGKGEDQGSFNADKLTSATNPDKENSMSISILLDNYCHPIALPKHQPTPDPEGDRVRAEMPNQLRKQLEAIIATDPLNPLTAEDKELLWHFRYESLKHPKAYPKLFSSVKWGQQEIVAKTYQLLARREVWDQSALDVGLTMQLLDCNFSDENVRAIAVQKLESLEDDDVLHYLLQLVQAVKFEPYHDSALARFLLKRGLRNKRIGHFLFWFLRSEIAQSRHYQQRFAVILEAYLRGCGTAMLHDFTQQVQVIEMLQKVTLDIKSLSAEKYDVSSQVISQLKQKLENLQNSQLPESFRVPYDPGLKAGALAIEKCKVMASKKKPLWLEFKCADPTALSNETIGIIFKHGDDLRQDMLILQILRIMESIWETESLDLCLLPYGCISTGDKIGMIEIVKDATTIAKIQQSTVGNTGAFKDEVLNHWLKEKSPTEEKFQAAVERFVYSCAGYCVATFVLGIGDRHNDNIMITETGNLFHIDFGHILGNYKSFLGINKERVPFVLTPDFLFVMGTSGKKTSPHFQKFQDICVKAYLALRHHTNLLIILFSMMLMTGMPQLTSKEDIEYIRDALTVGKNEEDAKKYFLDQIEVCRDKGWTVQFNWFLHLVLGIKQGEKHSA

[8] = biological target: AMP-activated protein kinase (AMPK) alpha-1/beta-1/gamma-1 (Homo sapiens, UniProt P54619+Q13131+Q9Y478); assay: Activation of recombinant human AMPK alpha1/beta1/gamma1 (unknown origin) using SAMS peptide as substrate preincubated for 20 mins followed by substrate and gamma-[32]P-ATP addition and measured after 30 mins by liquid scintillation counting method; format: protein-complex assay
Chain of AMP-activated protein kinase (AMPK) alpha-1/beta-1/gamma-1 (P54619 whole entry): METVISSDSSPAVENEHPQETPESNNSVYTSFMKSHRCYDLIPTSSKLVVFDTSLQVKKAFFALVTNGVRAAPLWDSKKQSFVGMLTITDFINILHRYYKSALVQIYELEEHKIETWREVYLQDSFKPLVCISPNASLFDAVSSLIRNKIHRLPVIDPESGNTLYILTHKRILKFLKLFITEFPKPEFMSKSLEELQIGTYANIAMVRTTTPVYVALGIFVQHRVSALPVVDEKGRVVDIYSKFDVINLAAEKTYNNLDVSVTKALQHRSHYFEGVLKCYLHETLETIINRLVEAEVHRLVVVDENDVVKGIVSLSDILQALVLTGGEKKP
Chain of AMP-activated protein kinase (AMPK) alpha-1/beta-1/gamma-1 (Q9Y478 whole entry): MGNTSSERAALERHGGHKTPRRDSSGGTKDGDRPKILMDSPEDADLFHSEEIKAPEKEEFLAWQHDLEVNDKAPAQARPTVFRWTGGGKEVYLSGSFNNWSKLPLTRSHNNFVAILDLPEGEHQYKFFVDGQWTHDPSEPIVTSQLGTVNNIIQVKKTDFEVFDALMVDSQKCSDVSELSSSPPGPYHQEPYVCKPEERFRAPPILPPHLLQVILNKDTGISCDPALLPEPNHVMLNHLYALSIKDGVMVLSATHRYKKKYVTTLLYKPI
Chain of AMP-activated protein kinase (AMPK) alpha-1/beta-1/gamma-1 (Q13131 whole entry): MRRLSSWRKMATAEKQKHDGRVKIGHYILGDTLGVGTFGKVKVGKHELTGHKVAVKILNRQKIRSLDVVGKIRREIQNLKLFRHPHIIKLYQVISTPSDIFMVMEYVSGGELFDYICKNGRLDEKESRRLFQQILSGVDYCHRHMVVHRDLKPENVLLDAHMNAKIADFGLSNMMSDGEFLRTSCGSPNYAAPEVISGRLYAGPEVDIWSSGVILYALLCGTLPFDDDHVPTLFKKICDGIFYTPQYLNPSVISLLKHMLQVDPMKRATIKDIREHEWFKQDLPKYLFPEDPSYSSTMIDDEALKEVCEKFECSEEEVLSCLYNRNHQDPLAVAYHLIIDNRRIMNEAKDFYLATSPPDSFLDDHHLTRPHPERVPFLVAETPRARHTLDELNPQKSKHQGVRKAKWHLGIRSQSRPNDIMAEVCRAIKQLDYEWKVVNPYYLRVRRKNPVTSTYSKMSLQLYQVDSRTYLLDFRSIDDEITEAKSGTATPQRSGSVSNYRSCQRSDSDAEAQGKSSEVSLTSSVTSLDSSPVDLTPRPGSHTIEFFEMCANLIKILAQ

BT-474 = assay: Cytotoxicity against human BT474 cells assessed as reduction in cell viability after 48 hrs by MTT assay; format: functional, cell-based; conditions: BT-474, 48 h
[9] = Dissociation constant, pKa of compound; format: physicochemical
U2OS = assay: Inhibition of autophagy in human U2OS cells stably expressing tfLC3; format: functional
[10] = Cytotoxicity in human U2OS cells incubated for 24 to 48 hrs by CellTiter Glo assay; format: cell-based; conditions: read-out: LD50 (the source's name)

COC(=O)Nc1nc2cc(C(=O)c3ccc(F)cc3)ccc2[nH]1 [FLUBENDAZOLE]
Activity (MDA-MB-231): 50%

O=C(/C=C/c1ccc2c(c1)OCO2)CC1(O)C(=O)Nc2ccccc21 (centres undefined)
IC50 (mTORC1): 0.001 to 0.005 µM | IC50 (mTORC2): 0.001 to 0.005 µM

CNC(=O)c1ccccc1Oc1nc(Nc2cc(OC)c(OC)c(OC)c2)ncc1Br
IC50 [1]: 0.011 µM

CN1CCc2cc(Nc3ncc(C4CC4)c(NCCCNC(=O)C4CCC4)n3)ccc2C1
IC50 [2]: 0.0029 µM | IC50 [3]: 0.0011 µM

c1cnc2ccc(Nc3nc(NC4CC4)c4nc[nH]c4n3)cc2c1 [PUQUITINIB MESYLATE DIHYDRATE]
IC50 [4]: 0.767 µM | IC50 [5]: 0.699 µM | IC50 [6]: 0.0028 µM | IC50 (CNE-2): 5.2 µM | IC50 [7]: 0.0897 µM

COC(=O)Nc1ccc(-c2nc(N3CCOCC3)c3cnn(C4CCN(C(=O)OC)CC4)c3n2)cc1
IC50 (mTORC1): 0.005 to 0.009 µM | IC50 (mTORC2): 0.005 to 0.009 µM

CC1(CN2C(=O)S/C(=C\c3ccc(NS(=O)(=O)c4ccc([N+](=O)[O-])c(C(F)(F)F)c4)cc3)C2=O)CCCCC1
EC50 [8]: 0.3 µM

CCN(CC)CCCC(C)Nc1ccnc2cc(Cl)ccc12 (centres undefined) [CHLOROQUINE]
IC50 (BT-474): > 1000 µM

CN1CCN(Cc2cc(CNC3(c4ccccc4F)CCCC3)ccc2O)CC1
pKa [9]: > 7.5 | IC50 (BT-474): 23.5 to 30.1 µM

CCN(CC)CCCC(C)Nc1c2ccc(Cl)cc2nc2ccc(OC)cc12 (centres undefined) [QUINACRINE]
EC (U2OS): 0.2 µM | CC50 [10]: 2.5 µM
